Laboratory results: patent EP2739618B1, “QUINAZOLINE COMPOUNDS AS SERINE/THREONINE KINASE INHIBITORS” (Array Biopharma, Inc., priority 2011, dated 2013)

Tests used:
HCT116 cells = test: Cell Proliferation/Viability Assay (Cell Titer-Blue); format: cell-based; conditions: Homo sapiens, HCT-116, 3-day (72-hour) incubation, single assay or mean of multiple assays
Description: Cell Proliferation/Viability Assay
Viable cells after a 3-day (72-hour) incubation with ERK compounds were quantified using the Cell Titer-Blue Cell Viability Assay from Promega.
Materials and Methods: HCT116 cells were plated in 96 well micro-plates at a density of 1,000 cells/well. The cells were allowed to attach to micro-plate overnight at 37 °C/5% CO2. After overnight attachment, diluted compounds were then added to the cells at a final concentration of 0.5% DMSO. After 3 days (72 hours) at 37 °C/5% CO2, the number of viable cells was determined using the Cell Titer-Blue Cell Viability Assay from Promega. Briefly, Cell Titer-Blue reagent were added to the cells and incubated for 1 hour. Fluorescence (560nmexcitation/590nmemission) was then read using a fluorescence micro-plate reader. Background from high concentration Erk-inhibited wells was subtracted. Representative data is in TABLE III (infra). The reported IC50 may be from a single assay or the mean of multiple assays.

[1] = system: PMA-stimulated P90RSK(Ser380) phosphorylation; test: Cellular P90RSK(Ser380) Phosphorylation Assay; format: cell-based; conditions: Homo sapiens; HepG2 cells, 1.5 h compound incubation, PMA 100ng/mL 30 min, normalized to GAPDH signal; single assay or mean of multiple assays
Description: Cellular P90RSK(Ser380) Phosphorylation Assay
Inhibition of PMA-stimulated P90RSK(Ser380) phosphorylation was determined by the following in vitro cellular mechanistic assay, which comprises incubating cells with a compound for 1.5 h and quantifying fluorescent pP90RSK(Ser380) signal on fixed cells and normalizing to GAPDH signal.
Materials and Methods: HepG2 cells were obtained from ATCC and grown in DMEM supplemented with 10% fetal bovine serum. Cells were plated in 96-well plates at 35,000 cells/well and allowed to attach overnight at 37 °C/5% CO2. Diluted compounds were then added at a final concentration of 0.5% DMSO. After 1.5 h compound incubation, cells were stimulated with the addition of PMA (phorbol 12-myristate 13-acetate) at a final concentration of 100ng/mL; the PMA stimulation was a 30-min incubation at 37 °C/5% CO2. After the 30-minute PMA stimulation, cells were washed with PBS and fixed in 3.7% formaldehyde in PBS at room temperature for 15-20 min. This was followed by another wash in PBS and then permeabilization in 100% MeOH at room temperature for 10-15 min. Following the permeabilization incubation, cells were washed in PBS/0.05% Tween-20, followed by a block in Odyssey blocking buffer (LI-COR Biosciences) for at least 1 hour. Antibodies to phosphorylated P90RSK(Ser380) (Cell Signaling #9335, rabbit monoclonal) and GAPDH (Fitzgerald 10R-G109a, mouse monoclonal) were added to the cells and incubated overnight at 4 °C. pP90RSK(Ser380) antibody was used at a 1:250 dilution; GAPDH was used at a 1:10,000 dilution. After washing with PBS/0.05% Tween-20, the cells were incubated with fluorescently-labeled secondary antibodies (Anti-rabbit-Alexa Flour680, Invitrogen Cat#A21109; Anti-mouse-IRDye800CW, Rockland Inc. Cat#610-131-121) for 1 h. Both secondary antibodies were used at a 1:1000 dilution. Cells were then washed and analyzed for fluorescence at both wavelengths using the Odyssey Infrared Imaging System (LI-COR Biosciences). Phosphorylated P90RSK(Ser380) signal was normalized to GAPDH signal. Representative data is in TABLE III (infra). The reported IC50 may be from a single assay or the mean of multiple assays.

[2] = molecular target: T1, human ERK-2 (Mitogen Activated Kinase 1) (Homo sapiens, UniProt P28482); test: ERK-2 Enzymatic Assay; format: biochemical; conditions: 5nM ERK-2 enzyme, 25µM ATP, S/T17 peptide substrate, single assay or mean of multiple assays
T1 construct: N-terminal 6-His fusion protein in E. coli and corresponding to aa 8-360; 6-His (N); made in house; host or cells: E. coli
T1 sequence (P28482 8-360): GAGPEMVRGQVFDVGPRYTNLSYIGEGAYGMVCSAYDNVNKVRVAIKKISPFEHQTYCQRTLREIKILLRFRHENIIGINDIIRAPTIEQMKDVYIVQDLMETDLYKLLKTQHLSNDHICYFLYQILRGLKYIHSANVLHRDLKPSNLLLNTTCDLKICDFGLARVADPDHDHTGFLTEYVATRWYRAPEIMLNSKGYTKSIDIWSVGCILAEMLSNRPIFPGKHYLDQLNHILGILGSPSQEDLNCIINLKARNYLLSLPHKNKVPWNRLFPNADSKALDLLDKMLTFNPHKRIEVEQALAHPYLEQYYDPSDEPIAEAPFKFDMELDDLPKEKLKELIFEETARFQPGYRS
Description: Compounds were tested in an enzymatic assay using human ERK-2 (Mitogen Activated Kinase 1), recombinantly expressed as an N-terminal 6-His fusion protein in E. coli and corresponding to aa 8-360. The substrate used was the fluorescent Omnia peptide S/T17 (Invitrogen of Carlsbad, CA; Cat. KNZ1171C). Test compounds were diluted in DMSO in 3-fold serial dilutions at 100x final concentrations. […] The assay was run at ambient temperature in a white 384-well polypropylene plate (Nunc, Inc of Naperville, IL; Cat. 267462) collecting data every 50 seconds for approximately 30 minutes on an Envision plate reader (PerkinElmer, Inc. of Waltham, MA); Excitation 340 nm/Emission 495 nm. The data collected from each well was fit to a straight line and the resulting rates were used to calculate percent of control. Percent of control was plotted against compound concentration and IC50 values were determined using a four-parameter fit. Representative data is in TABLE I and TABLE II. The reported IC50 may be from a single assay or the mean of multiple assays.

SMILES	IC50 [1] [nM]	IC50 ([2]; TABLE II) [nM]	further results
C[C@@H](CO)Nc1ncc2ccc(C(=O)N[C@H](c3ccc(Cl)c(F)c3)c3cnn(C)c3)cc2n1 (stereo in doubt) [Compound I-14, 2-((S)-2-hydroxy-1-methyl-ethylamino)-quinazoline-7-carboxylic acid [(R)-(4-chloro-3-fluoro-phenyl)-(1-methyl-1H-pyrazol-4-yl)-methyl]-amide]	59.8	–	IC50 (HCT116 cells): 875 nM
C[C@H](Nc1ncc2ccc(C(=O)N[C@@H](c3ccc(Cl)c(F)c3)[C@@H]3CCCN3)cc2n1)C(F)(F)F [Compound I-40, 2-((S)-2,2,2-trifluoro-1-methyl-ethylamino)-quinazoline-7-carboxylic acid [(S)-(4-chloro-3-fluoro-phenyl)-(S)-pyrrolidin-2-yl-methyl]-amide]	2900	–	IC50 ([2]; TABLE I): 7.3 nM
Cn1cc([C@@H](NC(=O)c2ccc3cnc(NC4CCOCC4)nc3c2)c2ccc(OC(F)F)cc2)cn1 [Compound I-41, 2-(tetrahydropyran-4-ylamino)-quinazoline-7-carboxylic acid [(S)-(4-difluoromethoxy-phenyl)-(1-methyl-1H-pyrazol-4-yl)-methyl]-amide]	115	–	IC50 ([2]; TABLE I): 0.55 nM
Cn1cc([C@@H](NC(=O)c2ccc3cnc(N[C@@H]4CCO[C@H](CO)C4)nc3c2)c2ccc(Cl)c(F)c2)cn1 [Compound I-47, N-((S)-(4-chloro-3-fluorophenyl)(1-methyl-1H-pyrazol-4-yl)methyl)-2-((2S,4R)-2-(hydroxymethyl)tetrahydro-2H-pyran-4-ylamino)quinazoline-7-carboxamide]	29	–	IC50 ([2]; TABLE I): 1.4 nM
COc1ccc([C@H](NC(=O)c2cc(F)c3cnc(NCC4CC4)nc3c2)c2cnn(C)c2)cc1F [Compound I-60, 2-(Cyclopropylmethyl-amino)-5-fluoro-quinazoline-7-carboxylic acid [(S)-(3-fluoro-4-methoxy-phenyl)-(1-methyl-1H-pyrazol-4-yl)-methyl]-amide]	334	–	IC50 ([2]; TABLE I): 6 nM
COc1ccc([C@H](NC(=O)c2cc(F)c3cnc(N[C@@H]4CCOC4)nc3c2)c2cnn(C)c2)cc1F [Compound I-61, 5-Fluoro-N-((S)-(3-fluoro-4-methoxyphenyl)(1-methyl-1H-pyrazol-4-yl)methyl)-2-((R)-tetrahydrofuran-3-ylamino)quinazoline-7-carboxamide]	66	–	IC50 ([2]; TABLE I): 2 nM
COc1ccc([C@H](NC(=O)c2cc(F)c3cnc(NC4(C)COC4)nc3c2)c2cnn(C)c2)cc1F [Compound I-64, 5-Fluoro-2-(3-methyl-oxetan-3-ylamino)-quinazoline-7-carboxylic acid [(S)-(3-fluoro-4-methoxy-phenyl)-(1-methyl-1H-pyrazol-4-yl)-methyl]-amide]	978	–	IC50 ([2]; TABLE I): 6 nM
COc1ccc(C(NC(=O)c2ccc3cnc(NC4CCOCC4)nc3c2)c2cnn(CCO)c2)cc1F (stereo not drawn) [Compound I-67, N-((3-fluoro-4-methoxyphenyl) (1-(2-hydroxyethyl)-1H-pyrazol-4-yl)methyl)-2-(tetrahydro-2H-pyran-4-ylamino) quinazoline-7-carboxamide]	165	–	IC50 ([2]; TABLE I): 5 nM
COc1ccc([C@H](NC(=O)c2ccc3cnc(NC4CSC4)nc3c2)c2cnn(C)c2)cc1F [II-5]	50.5	13	–
COc1ccc([C@H](NC(=O)c2cc(F)c3cnc(N[C@H]4CC[C@H](O)CC4)nc3c2)c2cnn(C)c2)cc1F [II-13]	84.4	–	–
COc1ccc([C@H](NC(=O)c2ccc3cnc(Nc4cc(C)nn4C)nc3c2)c2cnn(C)c2)cc1F [II-18]	364	2.1	–
Cn1cc([C@@H](NC(=O)c2ccc3cnc(Nc4ccnn4C)nc3c2)c2ccc(Cl)c(F)c2)cn1 [II-25]	19.9	3.1	–
COc1ccc(C(NC(=O)c2cc(F)c3cnc(NC4CC5CC4CO5)nc3c2)c2cnn(C)c2)cc1F (stereo not drawn) [II-34]	–	1000	–
COc1ccnc(C(NC(=O)c2cc(F)c3cnc(NC4CCOCC4)nc3c2)c2cnn(C)c2)c1 (stereo not drawn) [II-35]	–	61	–
COc1ccc([C@H](NC(=O)c2ccc3cnc(N[C@H]4CCOC[C@H]4F)nc3c2)c2ccnn2C)cc1F [II-36]	–	3.8	–
COc1ccc([C@H](NC(=O)c2ccc3cnc(N[C@H]4CCOC[C@@H]4F)nc3c2)c2ccnn2C)cc1F [II-37]	–	3.6	–
COc1ccc([C@H](NC(=O)c2ccc3cnc(Nc4ccnn4C)nc3c2)c2ccnn2C)cc1F [II-38]	38	2.9	–

SMILES	IC50 [1] [nM]	IC50 ([2]; TABLE II) [nM]	further results
Cn1nccc1[C@@H](NC(=O)c1ccc2cnc(NC3CCOCC3)nc2c1)c1ccc(Cl)c(F)c1 [II-39]	–	151	–
Cn1nccc1[C@@H](NC(=O)c1ccc2cnc(NC3CCOCC3)nc2c1)c1ccc(C#N)c(Cl)c1 [II-40]	–	26	–
Cn1cc([C@@H](NC(=O)c2ccc3cnc(NC4CCOCC4)nc3c2)c2ccc(C(F)(F)F)c(F)c2)cn1 [II-41]	–	5.2	–
Cn1nccc1Nc1ncc2ccc(C(=O)NC(c3ccc(Cl)c(F)c3)C3(F)CCNC3)cc2n1 (stereo not drawn) [II-42]	–	34.6	–
Cn1cc(C(NC(=O)c2ccc3cnc(NC4CCOCC4)nc3c2)c2ccc(OC(F)F)cc2)cn1 (stereo not drawn) [II-43]	–	12.1	–
O=C(N[C@@H](c1ccc(OC(F)(F)F)c(F)c1)[C@H]1CCCNC1)c1ccc2cnc(NC3CCOCC3)nc2c1 [II-44]	–	216	–
O=C(N[C@@H](c1ccc(OC(F)(F)F)c(F)c1)C1CNCCO1)c1ccc2cnc(NC3CCOCC3)nc2c1 (stereo partly drawn) [II-45]	–	6.9	–
COc1ccc([C@H](NC(=O)c2cc(F)c3cnc(NC4CCOCC4)nc3c2)c2cncn2C)cc1F [II-46]	–	1.1	–
COc1ccc([C@H](NC(=O)c2cc(F)c3cnc(NC4CCOCC4)nc3c2)c2cnco2)cc1F [II-47]	–	1.3	–
COc1ccc([C@H](NC(=O)c2cc(F)c3cnc(NC4CCOCC4)nc3c2)c2cnnn2C)cc1F [II-48]	–	1.4	–
COc1ccc([C@H](NC(=O)c2cc(F)c3cnc(NC4CCOCC4)nc3c2)c2cn(C)cn2)cc1F [II-49]	–	85.5	–
COc1ccc([C@H](NC(=O)c2cc(F)c3cnc(NC4CCOCC4)nc3c2)c2ncc[nH]2)cc1F [II-50]	–	59.1	–
COc1ccc([C@H](NC(=O)c2cc(F)c3cnc(NC4CCOCC4)nc3c2)c2c[nH]c(C)n2)cc1F [II-51]	–	164	–
COc1ccc([C@H](NC(=O)c2cc(F)c3cnc(NC4CCOCC4)nc3c2)c2nccn2C)cc1F [II-52]	–	1.9	–
COc1ccc([C@H](NC(=O)c2cc(F)c3cnc(Nc4ccnn4C)nc3c2)c2cncn2C)cc1F [II-53]	–	1.5	–
COc1ccc([C@H](NC(=O)c2cc(F)c3cnc(Nc4ccnn4C)nc3c2)c2nccn2C)cc1F [II-54]	–	8.5	–
